Literature values in patent US10590413B2, “Chiral control” (WAVE LIFE SCIENCES LTD., priority 2012, dated 2020).
Like-named read-outs stand apart in the source and are kept apart here.

Tests used:
[1] = test system: Mouse B Cells; conditions: mean and std. dev. of at least 3 experiments, compared to wells with no added ODN, cited from earlier work
[2] = test system: NK activity; conditions: cited from earlier work; for % 2C11 Specific Lysis, Effector:Target 50:1 / % 2C11 Specific Lysis, Effector:Target 100:1: 2C11 targets; for % YAC-1 Specific Lysis, Effector:Target 50:1 / % YAC-1 Specific Lysis, Effector:Target 100:1: YAC-1 targets
[3] = test system: human PBMC; conditions: cited from earlier work
[4] = test system: Murine IL-6 production and B cell activation; conditions: cited from earlier work; for IL-6 (pg/ml) CH12.LX: CH12.LX cells; for SI (stimulation index, [3H] uridine uptake, fold increase from unstimulated control): cells stimulated with 20 μM CpG O-ODN; for SI (stimulation index, [3H] uridine uptake, fold increase from unstimulated control) / SI (stimulation index, [3H] uridine uptake): mean ± SD of triplicates; for SI (stimulation index, [3H] uridine uptake): fold increase from unstimulated control, 20 μM CpG O-ODN; for IgM: unstimulated culture 547 ± 82 ng/ml; for IL-6 (pg/ml) SPLENIC B CELL: splenic B cells
[5] = test system: NK Lytic Activity; conditions: cited from earlier work; for NK Lytic Activity (LU): human PBMC cultured with ODN 6 μg/ml for 24 hr, lysis of 51Cr-labeled K562 cells; for LU (NK lytic activity): human PBMC, ODN 6 μg/ml for 24 hr, lysis of Cr-labeled K562 cells, cells alone 0.01
[6] = ODN 12 μg/ml, 4 hr, 10% autologous serum, level above wells with no ODN, ELISA
[7] = ODN 12 μg/ml, 24 hr, 10% autologous serum, level above wells with no ODN, ELISA
[8] = unstimulated control ≤10 pg/ml, US 6,239,116 Table 2

Substance: 1 (DNA GCTAGACGTTAGCGT; chemistry not given here) [Oligonucleotide 1]
- Stimulation Index, 3H Uridine ([1]; US 6,239,116 Table 1): 6.1 ± 0.8
- Stimulation Index, IgM Production ([1]; US 6,239,116 Table 1): 17.9 ± 3.6
- Stimulation Index, 3H Uridine [1]: 6.1 ± 0.8
- % 2C11 Specific Lysis, Effector:Target 50:1 ([2]; Effector:Target 50:1): 38.7%
- % 2C11 Specific Lysis, Effector:Target 100:1 ([2]; Effector:Target 100:1): 47.2%
- % 2C11 Specific Lysis ([2]; Effector:Target 50:1): 38.7%
- % YAC-1 Specific Lysis ([2]; Effector:Target 50:1): 16.1%
- % 2C11 Specific Lysis ([2]; Effector:Target 100:1): 47.2%
- % YAC-1 Specific Lysis ([2]; Effector:Target 100:1): 24.5%
- % YAC-1 Specific Lysis, Effector:Target 50:1 ([2]; Effector:Target 50:1): 16.1%
- % YAC-1 Specific Lysis, Effector:Target 100:1 ([2]; Effector:Target 100:1): 24.5%

Substance: 3Dd (DNA GAGAACGCTGGACCTTCCAT; Z modified cytosine, further chemistry not given here) [Oligonucleotide 3Dd]
- Stimulation Index, 3H Uridine ([1]; US 6,239,116 Table 1): 1.2 ± 0.2
- Stimulation Index, IgM Production ([1]; US 6,239,116 Table 1): 1.0 ± 0.4
- Stimulation Index, 3H Uridine [1]: 1.2 ± 0.2
- % 2C11 Specific Lysis, Effector:Target 50:1 ([2]; Effector:Target 50:1): 37.0%
- % 2C11 Specific Lysis, Effector:Target 100:1 ([2]; Effector:Target 100:1): 40.0%
- % 2C11 Specific Lysis ([2]; Effector:Target 50:1): 37.0%
- % YAC-1 Specific Lysis ([2]; Effector:Target 50:1): 17.1%
- % 2C11 Specific Lysis ([2]; Effector:Target 100:1): 40.0%
- % YAC-1 Specific Lysis ([2]; Effector:Target 100:1): 27.0%
- % YAC-1 Specific Lysis, Effector:Target 50:1 ([2]; Effector:Target 50:1): 17.1%
- % YAC-1 Specific Lysis, Effector:Target 100:1 ([2]; Effector:Target 100:1): 27.0%

Substance: 1637 (DNA TCCATGCCGGTCCTGATGCT; chemistry not given here) [Oligonucleotide 1637]
- TNF-α [3, 6]: 16 pg/mL
- GM-CSF [3, 7]: 15.6 pg/mL
- IFN-γ [3, 7]: 7.8 pg/mL
- IL-6 [3, 7]: 550 pg/mL
- IL-12 [3, 7]: 16 pg/mL
- GM-CSF [3]: 15.6
- IFN-γ [3]: 7.8
- IL-6 [3]: 550
- IL-12 [3]: 35
- TNF-α [3]: 16
- IL-6 (pg/ml) CH12.LX [4]: 136 ± 27 pg/mL
- IL-6 (pg/ml) CH12.LX [4, 8]: 136 ± 27 pg/mL
- SI (stimulation index, [3H] uridine uptake, fold increase from unstimulated control) [4]: 1.7 ± 0.2
- SI (stimulation index, [3H] uridine uptake) [4]: 1.7 ± 0.2
- IgM ([4]; measured by ELISA): 770 ± 72 ng/mL
- IL-6 (pg/ml) SPLENIC B CELL [4]: 46 ± 6 pg/mL
- IL-6 (pg/ml) SPLENIC B CELL [4, 8]: 46 ± 6 pg/mL

Substance: 1639 (DNA TCCATAACGTTCCTGATGCT; chemistry not given here) [Oligonucleotide 1639]
- TNF-α [3, 6]: 220 pg/mL
- GM-CSF [3, 7]: 40 pg/mL
- IFN-γ [3, 7]: 15.6 pg/mL
- IL-6 [3, 7]: 625 pg/mL
- IL-12 [3, 7]: 220 pg/mL
- GM-CSF [3]: 40
- IFN-γ [3]: 15.6
- IL-6 [3]: 625
- IL-12 [3]: 60
- TNF-α [3]: 220
- IL-6 (pg/ml) CH12.LX [4]: 1827 ± 83 pg/mL
- IL-6 (pg/ml) CH12.LX [4, 8]: 1827 ± 83 pg/mL
- IgM ([4]; ELISA): 9489 ± 103 ng/mL
- SI (stimulation index, [3H] uridine uptake, fold increase from unstimulated control) [4]: 11.5 ± 0.4
- SI (stimulation index, [3H] uridine uptake) [4]: 11.5 ± 0.4
- IgM ([4]; measured by ELISA): 9439 ± 103 ng/mL
- IL-6 (pg/ml) SPLENIC B CELL [4]: 2012 ± 132 pg/mL
- IL-6 (pg/ml) SPLENIC B CELL [4, 8]: 2012 ± 132 pg/mL

Substance: 1707 (DNA TCCATGACGTCCCTGATGCT; chemistry not given here) [Oligonucleotide 1707]
- TNF-α [3, 6]: 70 pg/mL
- GM-CSF [3, 7]: 0 pg/mL
- IFN-γ [3, 7]: 17 pg/mL
- IL-6 [3, 7]: 300 pg/mL
- IL-12 [3, 7]: 70 pg/mL
- GM-CSF [3]: 0
- IFN-γ [3]: 17
- IL-6 [3]: 300
- IL-12 [3]: 0
- TNF-α [3]: 70
- SI (stimulation index, [3H] uridine uptake, fold increase from unstimulated control) [4]: 4.0 ± 0.2
- SI (stimulation index, [3H] uridine uptake) [4]: 4.0 ± 0.2
- IgM ([4]; measured by ELISA): 3534 ± 217 ng/mL
- IL-6 (pg/ml) SPLENIC B CELL [4]: 1147 ± 175 pg/mL
- IL-6 (pg/ml) SPLENIC B CELL [4, 8]: 1147 ± 175 pg/mL

Substance: 1708 (DNA TCCATCACGTGCCTGATGCT; chemistry not given here) [Oligonucleotide 1708]
- TNF-α [3, 6]: 10 pg/mL
- IFN-γ [3, 7]: 17 pg/mL
- IL-6 [3, 7]: 270 pg/mL
- IL-12 [3, 7]: 10 pg/mL
- GM-CSF [3]: 0
- IFN-γ [3]: 17
- IL-6 [3]: 270
- IL-12 [3]: 0
- TNF-α [3]: 10
- SI (stimulation index, [3H] uridine uptake, fold increase from unstimulated control) [4]: 1.5 ± 0.1
- SI (stimulation index, [3H] uridine uptake) [4]: 1.5 ± 0.1
- IgM ([4]; measured by ELISA): 466 ± 109 ng/mL
- IL-6 (pg/ml) SPLENIC B CELL [4]: 59 ± 3 pg/mL
- IL-6 (pg/ml) SPLENIC B CELL [4, 8]: 59 ± 3 pg/mL

Substance: 1754 (DNA ACCATGGACGATCTGTTTCCCCTC; chemistry not given here) [Oligonucleotide 1754]
- NK Lytic Activity (LU) [5]: 0.02 LU
- LU (NK lytic activity) [5]: 0.02 LU

Substance: 1761 (DNA TACCGCGTGCGACCCTCT; chemistry not given here) [Oligonucleotide 1761]
- NK Lytic Activity (LU) [5]: 0.05 LU
- LU (NK lytic activity) [5]: 0.05 LU

Substance: 1776 (DNA ACCATGGACGAACTGTTTCCCCTC; chemistry not given here) [Oligonucleotide 1776]
- NK Lytic Activity (LU) [5]: 0.03 LU
- LU (NK lytic activity) [5]: 0.03 LU

Substance: 1777 (DNA ACCATGGACGAGCTGTTTCCCCTC; chemistry not given here) [Oligonucleotide 1777]
- NK Lytic Activity (LU) [5]: 0.05 LU
- LU (NK lytic activity) [5]: 0.05 LU

Substance: 1778 (DNA ACCATGGACGACCTGTTTCCCCTC; chemistry not given here) [Oligonucleotide 1778]
- NK Lytic Activity (LU) [5]: 0.01 LU
- LU (NK lytic activity) [5]: 0.01 LU

Substance: 1779 (DNA ACCATGGACGTACTGTTTCCCCTC; chemistry not given here) [Oligonucleotide 1779]
- NK Lytic Activity (LU) [5]: 0.02 LU
- LU (NK lytic activity) [5]: 0.02 LU

Substance: 1780 (DNA ACCATGGACGGTCTGTTTCCCCTC; chemistry not given here) [Oligonucleotide 1780]
- NK Lytic Activity (LU) [5]: 0.29 LU
- LU (NK lytic activity) [5]: 0.29 LU

Substance: 1781 (DNA ACCATGGACGTTCTGTTTCCCCTC; chemistry not given here) [Oligonucleotide 1781]
- NK Lytic Activity (LU) [5]: 0.38 LU
- LU (NK lytic activity) [5]: 0.38 LU

Substance: 1823 (DNA GCATGACGTTGAGCT; chemistry not given here) [Oligonucleotide 1823]
- NK Lytic Activity (LU) [5]: 0.08 LU
- LU (NK lytic activity) [5]: 0.08 LU

Substance: 1824 (DNA CACGTTGAGGGGCAT; chemistry not given here) [Oligonucleotide 1824]
- NK Lytic Activity (LU) [5]: 0.01 LU
- LU (NK lytic activity) [5]: 0.01 LU

Substance: 1825 (DNA CTGCTGAGACTGGAG; chemistry not given here) [Oligonucleotide 1825]
- NK Lytic Activity (LU) [5]: 0.01 LU
- LU (NK lytic activity) [5]: 0.01 LU

Substance: 1828 (DNA TCAGCGTGCGCC; chemistry not given here) [Oligonucleotide 1828]
- NK Lytic Activity (LU) [5]: 0.01 LU
- LU (NK lytic activity) [5]: 0.01 LU

Substance: 1829 (DNA ATGACGTTCCTGACGTT; chemistry not given here) [Oligonucleotide 1829]
- NK Lytic Activity (LU) [5]: 0.42 LU
- LU (NK lytic activity) [5]: 0.42 LU

Substance: 1834 (DNA TCTCCCAGCGGGCGCAT; chemistry not given here) [Oligonucleotide 1834]
- NK Lytic Activity (LU) [5]: 0.00 LU
- LU (NK lytic activity) [5]: 0.00 LU

Substance: 1836 (DNA TCTCCCAGCGCGCGCCAT; chemistry not given here) [Oligonucleotide 1836]
- NK Lytic Activity (LU) [5]: 0.46 LU
- LU (NK lytic activity) [5]: 0.46 LU

Substance: 1842 (DNA TCGTCGCTGTCTCCGCTTCTT; chemistry not given here) [Oligonucleotide 1842]
- NK Lytic Activity (LU) [5]: 0.06 LU
- LU (NK lytic activity) [5]: 0.06 LU

Substance: 1851 (DNA TCCTGACGTTCCTGACGTT; chemistry not given here) [Oligonucleotide 1851]
- NK Lytic Activity (LU) [5]: 2.32 LU
- LU (NK lytic activity) [5]: 2.32 LU
